ChEMBL document CHEMBL1151041, “Synthesis and antitumor evaluation of 2-oxycarbonylpaclitaxels (paclitaxel-2-carbonates)” (Bioorg Med Chem Lett, 1994)
Active and inactive are the calls of the source. No cut-off for these calls is given here.

Tests used:
[1] = test system: HCT-116; experiment: Compound was tested for its cytotoxicity against human colon cancer cell line HCT116; type: functional, cell-based
[2] = species: Rattus norvegicus; experiment: Tested for tubulin polymerization assay in rat; Inactive; type: functional, organism-based
[3] = test system: M109; experiment: In vivo antitumor activity expressed as percent median survival time of treated mice to saline treated mice against murine lung carcinoma M109 at 90 mg/kg (ip) on days 1, 5 and 9; type: functional, Mus musculus
[4] = test system: M109; experiment: In vivo antitumor activity expressed as percent median survival time of treated mice to saline treated mice against murine lung carcinoma M109 at 90 mg/kg (ip) on days 5 and 8; type: functional, Mus musculus
[5] = species: Rattus norvegicus; experiment: Tested to promote microtubule assembly by tubulin polymerization assay in rat plasma at 37 degree C for 18 hr; Active; type: functional, organism-based
[6] = test system: M109; experiment: In vivo antitumor activity expressed as percent median survival time of treated mice to saline treated mice against murine lung carcinoma M109 at 50 mg/kg (ip) on days 1, 5 and 9 reference to 3e; type: functional, Mus musculus
[7] = test system: M109; experiment: In vivo antitumor activity expressed as percent median survival time of treated mice to saline treated control against murine lung carcinoma M109 at 50 mg/kg (ip) on days 5 and 8 reference to 3c; type: functional, Mus musculus
[8] = test system: M109; experiment: In vivo antitumor activity expressed as percent median survival time of treated mice to saline treated mice against murine lung carcinoma M109 at 75 mg/kg (ip) on days 5 and 8 reference to 3h; type: functional, Mus musculus
[9] = test system: M109; experiment: In vivo antitumor activity expressed as percent median survival time of treated mice to saline treated mice against murine lung carcinoma M109 at 75 mg/kg (ip) on days 5 and 8 reference to 3i; type: functional, Mus musculus
[10] = test system: M109; experiment: In vivo antitumor activity expressed as percent median survival time of treated mice to saline treated mice against murine lung carcinoma M109 at 30 mg/kg (ip) on days 1, 5 and 9 reference to 3b; type: functional, Mus musculus
[11] = test system: M109; experiment: In vivo antitumor activity expressed as percent median survival time of treated mice to saline treated mice against murine lung carcinoma M109 at 75 mg/kg (ip) on days 5 and 8 reference to 3g; type: functional, Mus musculus
[12] = test system: M109; experiment: In vivo antitumor activity expressed as percent median survival time of treated mice to saline treated mice against murine lung carcinoma M109 at 75 mg/kg (ip) on days 5 and 8 reference to 3a; type: functional, Mus musculus
[13] = test system: M109; experiment: In vivo antitumor activity expressed as percent median survival time of treated mice to saline treated mice against murine lung carcinoma M109 at 30 mg/kg (ip) on days 1, 5 and 9 reference to 3d; type: functional, Mus musculus
[14] = test system: M109; experiment: In vivo antitumor activity expressed as percent median survival time of treated mice to saline treated mice against murine lung carcinoma M109 at 30 mg/kg (ip) on days 1, 5 and 9 reference to 3f; type: functional, Mus musculus

CC(=O)O[C@H]1C(=O)[C@@]2(C)C([C@H](OC(=O)c3ccccc3)[C@]3(O)C[C@H](OC(=O)[C@H](OC(=O)OCCl)[C@@H](NC(=O)c4ccccc4)c4ccccc4)C(C)=C1C3(C)C)[C@]1(OC(C)=O)COC1C[C@@H]2O (stereo partly specified)
IC50 [1]: 0.03 µM | Activity [2]: inactive | T/C [3]: 275%

C=COC(=O)O[C@@H](C(=O)O[C@H]1C[C@@]2(O)[C@@H](OC(=O)c3ccccc3)C3[C@]4(OC(C)=O)COC4C[C@H](O)[C@@]3(C)C(=O)[C@H](OC(C)=O)C(=C1C)C2(C)C)[C@@H](NC(=O)c1ccccc1)c1ccccc1 (stereo partly specified)
IC50 [1]: 0.04 µM | Activity [2]: inactive | T/C [3]: >475%

CC(=O)O[C@H]1C(=O)[C@@]2(C)C([C@H](OC(=O)c3ccccc3)[C@]3(O)C[C@H](OC(=O)[C@H](OC(=O)OC(C)C)[C@@H](NC(=O)c4ccccc4)c4ccccc4)C(C)=C1C3(C)C)[C@]1(OC(C)=O)COC1C[C@@H]2O (stereo partly specified)
IC50 [1]: > 0.08 µM | Activity [2]: inactive | T/C [4]: 247%

COC(=O)O[C@@H](C(=O)O[C@H]1C[C@@]2(O)[C@@H](OC(=O)c3ccccc3)C3[C@]4(OC(C)=O)COC4C[C@H](O)[C@@]3(C)C(=O)[C@H](OC(C)=O)C(=C1C)C2(C)C)[C@@H](NC(=O)c1ccccc1)c1ccccc1 (stereo partly specified)
IC50 [1]: > 0.08 µM | Activity [5]: Active | T/C [4]: 162%

C=C(C)OC(=O)O[C@@H](C(=O)O[C@H]1C[C@@]2(O)[C@@H](OC(=O)c3ccccc3)C3[C@]4(OC(C)=O)COC4C[C@H](O)[C@@]3(C)C(=O)[C@H](OC(C)=O)C(=C1C)C2(C)C)[C@@H](NC(=O)c1ccccc1)c1ccccc1 (stereo partly specified)
IC50 [1]: < 0.015 µM | Activity [2]: inactive | T/C [4]: 235%

CC(=O)O[C@H]1C(=O)[C@@]2(C)C([C@H](OC(=O)c3ccccc3)[C@]3(O)C[C@H](OC(=O)[C@H](OC(=O)Oc4ccccc4)[C@@H](NC(=O)c4ccccc4)c4ccccc4)C(C)=C1C3(C)C)[C@]1(OC(C)=O)COC1C[C@@H]2O (stereo partly specified)
IC50 [1]: 0.007 µM | Activity [2]: inactive | T/C [4]: 203%

CC(=O)O[C@H]1C(=O)[C@@]2(C)C([C@H](OC(=O)c3ccccc3)[C@]3(O)C[C@H](OC(=O)[C@H](OC(=O)OCc4ccccc4)[C@@H](NC(=O)c4ccccc4)c4ccccc4)C(C)=C1C3(C)C)[C@]1(OC(C)=O)COC1C[C@@H]2O (stereo partly specified)
IC50 [1]: 0.03 µM | Activity [2]: inactive | T/C [3]: 310%

CC(=O)O[C@H]1C(=O)[C@@]2(C)C([C@H](OC(=O)c3ccccc3)[C@]3(O)C[C@H](OC(=O)[C@H](OC(=O)Oc4cccc(N(C)C)c4)[C@@H](NC(=O)c4ccccc4)c4ccccc4)C(C)=C1C3(C)C)[C@]1(OC(C)=O)COC1C[C@@H]2O (stereo partly specified)
IC50 [1]: 0.016 µM | Activity [2]: inactive | T/C [4]: 226%

CC(=O)O[C@H]1C(=O)[C@@]2(C)[C@H]([C@H](OC(=O)c3ccccc3)[C@]3(O)C[C@H](OC(=O)[C@H](O)[C@@H](NC(=O)c4ccccc4)c4ccccc4)C(C)=C1C3(C)C)[C@]1(OC(C)=O)CO[C@@H]1C[C@@H]2O [PACLITAXEL]
T/C [6]: 270% | T/C [7]: 197% | T/C [8]: 262% | T/C [9]: 262% | T/C [10]: 275% | T/C [11]: 262% | T/C [12]: 276% | T/C [13]: 275% | T/C [14]: 275%

CCOC(=O)O[C@@H](C(=O)O[C@H]1C[C@@]2(O)[C@@H](OC(=O)c3ccccc3)C3[C@]4(OC(C)=O)COC4C[C@H](O)[C@@]3(C)C(=O)[C@H](OC(C)=O)C(=C1C)C2(C)C)[C@@H](NC(=O)c1ccccc1)c1ccccc1 (stereo partly specified)
IC50 [1]: 0.03 µM | Activity [5]: Active | T/C [3]: >475%
